Where a name gives a salt, the structure may show the parent alone.
What was measured:
[1] = target: His-tagged human recombinant kinase full-length Akt1 (Homo sapiens (Human), UniProt P31749); test: Akt1 kinase assay (TR-FRET); assay type: biochemical; details: 10 μM ATP; median
Source text: Akt1 inhibitory activity of compounds of the present invention was quantified employing the Akt1 TR-FRET assay as described in the following paragraphs. His-tagged human recombinant kinase full-length Akt1 expressed in insect cells was purchased form Invitrogen (part number PV 3599). As substrate for the kinase reaction the biotinylated peptide biotin-Ahx-[…] (C-terminus in amide form) was used which can be purchased e.g. from the company Biosynthan GmbH (Berlin-Buch, Germany).
(§1) For the assay 50 nl of a 100 fold concentrated solution of the test compound in DMSO was pipetted into a black low volume 384 well microtiter plate (Greiner Bio-One, Frickenhausen, Germany), 2 μl of a solution of Akt1 in assay buffer [50 mM TRIS/HCl pH 7.5, 5 mM MgCl2, 1 mM dithiothreitol, 0.02% (v/v) Triton X-100 (Sigma)] were added and the mixture was incubated for 15 min at 22° C. to allow pre-binding of the test compounds to the enzyme before the start of the kinase reaction. Then the kinase reaction was started by the addition of 3 μl of a solution of adenosine-tri-phosphate (ATP, 16.7 μM=>final conc. in the 5 μl assay volume is 10 μM) and substrate (1.67 μM=>final conc. in the 5 μl assay volume is 1 μM) in assay buffer and the resulting mixture was incubated for a reaction time of 60 min at 22° C. The concentration of Akt1 in the assay was adjusted depending of the activity of the enzyme lot and was chosen appropriate to have the assay in the linear range, typical enzyme concentrations were in the range of about 0.05 ng/μl (final conc. in the 5 μl assay volume).
(§2) The reaction was stopped by the addition of 5 μl of a solution of HTRF detection reagents (200 nM streptavidine-XL665 [Cisbio] and 1.5 nM anti-phosho-Serine antibody [Millipore, cat. #35-001] and 0.75 nM LANCE Eu-W 1024 labeled anti-mouse IgG antibody [Perkin Elmer]) in an aqueous EDTA-solution (100 mM EDTA, 0.1% (w/v) bovine serum albumin in 50 mM HEPES/NaOH pH 7.5).
(§3) The resulting mixture was incubated 1 h at 22° C. to allow the binding of the biotinylated phosphorylated peptide to the streptavidine-XL665 and the antibodies. Subsequently the amount of phosphorylated substrate was evaluated by measurement of the resonance energy transfer from the anti-mouse-IgG-Eu-Chelate to the streptavidine-XL665. Therefore, the fluorescence emissions at 620 nm and 665 nm after excitation at 350 nm was measured in a HTRF reader, e.g. a Rubystar (BMG Labtechnologies, Offenburg, Germany) or a Viewlux (Perkin-Elmer). The ratio of the emissions at 665 nm and at […] was taken as the measure for the amount of phosphorylated substrate. The data were normalised (enzyme reaction without inhibitor=0% inhibition, all other assay components but no enzyme=100% inhibition).

[2] = target: His-tagged human recombinant kinase full-length Akt2 (Homo sapiens (Human), UniProt P31751); test: Akt2 kinase assay (TR-FRET); assay type: biochemical; details: 10 μM ATP; median
Source text: Akt2 inhibitory activity of compounds of the present invention was quantified employing the Akt2 TR-FRET assay as described in the following paragraphs.
His-tagged human recombinant kinase full-length Akt2 expressed in insect cells and activated by PDK1 was purchased form Invitrogen (part number PV 3975). As substrate for the kinase reaction the biotinylated peptide biotin-Ahx-[…] (C-terminus in amide form) was used which can be purchased e.g. from the company Biosynthan GmbH (Berlin-Buch, Germany).
as §1, with “Akt2” for “Akt1”, “0.2” for “0.05”
as §2, with “0.1%/w/v\” for “0.1% (w/v)”
as §3, with “TR-FRET” for “HTRF”

[3] = system: phospho-AKT at S473 in KPL4 breast tumour cell line; test: Cellular p-AKT1/2/3-S473 assay; assay type: cell-based; details: KPL4 cells, 2 hours treatment; median; read-out: pAKT-S743 median IC50
Description: The molecular mechanism of action was investigated in a set of experiments to assess the inhibition of the PI3K-AKT-mTOR pathway in responsive cell lines such as KPL4 breast tumour cell line (PIK3CAH1047R, HER2O/E and hormone independent). The phospho-substrates of PI3K-AKT-mTOR axis were used as the read-outs to reflect pathway inhibition. Cells were seeded at 60-80% confluency per well in 96-well cell culture plates. After overnight incubation at 37° C. 5% CO2, cells were treated with compounds and vehicle at 37° C. for 2 hours. […] All measurements where at least done in duplicates and confirmed by independent repetition.
Alternatively pAKT-S473 was measured using the “Akt Duplex” of the MULTI-SPOT® Assay System (Fa. Meso Scale Discovery, Cat# N41100B-1) following manufacturers instructions. Each assay used 20 μg of protein extract and measured total AKT and p-AKT content simultaneously in one well. All measurements where at least done in duplicates and confirmed by independent repetition. Values for P-AKT are expressed as percentage of P-AKT level compared to total-AKT content of the extracts.

[4] = system: KPL-4 cells; test: Tumor cell proliferation assay (CellTiter-Glo); assay type: cell-based; details: KPL4; 72 h drug exposure
Description: Compounds were tested in a cell-based assay that measures the capacity of the compounds to inhibit tumour cell proliferation following a 72 h drug exposure. Cell viability is determined using CellTiter-Glow® (CTG, Promega, cat# G757112/3). The CellTiter-Glo® Luminescent Cell Viability Assay is a homogeneous method to determine the number of viable cells in culture. Detection is based on using the luciferase reaction to measure the amount of ATP from viable cells. The amount of ATP in cells correlates with cell viability. Within minutes after a loss of membrane integrity, cells lose the ability to synthesize ATP, and endogenous ATPases destroy any remaining ATP; thus the levels of ATP fall precipitously.
Cells were plated at 3000-5000 cells/well (depending on the cell lines) in 90 μL growth medium on MTPs (Corning; #3603, black plate, clear flat bottom). For each cell line assayed, cells were plated onto a separate plate for determination of […] at t=0 hour and t=72 hour time points. Following overnight incubation at 37° C., chemiluminescence values for the t=0 samples were determined after adding 10 μl medium and 100 μl CTG solution according to manufacture protocol. Plates for the t=72 hour time points were treated with compounds diluted into growth medium at ten times final concentration added in 10 μL to the cell culture plate. Cells were then incubated for 72 hours at 37° C. Chemiluminescence values for the t=72 hour samples were determined. For data analysis, briefly, data from 24 h plate where used to reflect 100% inhibition of growth (“Ci”) and DMSO control for uninhibited growth (“C0”) and analyzed using MTS software package for IC50 and Hill coefficient. Experiments were controlled using a reference compound as standard.

Chain of His-tagged human recombinant kinase full-length Akt2 (P31751 whole entry): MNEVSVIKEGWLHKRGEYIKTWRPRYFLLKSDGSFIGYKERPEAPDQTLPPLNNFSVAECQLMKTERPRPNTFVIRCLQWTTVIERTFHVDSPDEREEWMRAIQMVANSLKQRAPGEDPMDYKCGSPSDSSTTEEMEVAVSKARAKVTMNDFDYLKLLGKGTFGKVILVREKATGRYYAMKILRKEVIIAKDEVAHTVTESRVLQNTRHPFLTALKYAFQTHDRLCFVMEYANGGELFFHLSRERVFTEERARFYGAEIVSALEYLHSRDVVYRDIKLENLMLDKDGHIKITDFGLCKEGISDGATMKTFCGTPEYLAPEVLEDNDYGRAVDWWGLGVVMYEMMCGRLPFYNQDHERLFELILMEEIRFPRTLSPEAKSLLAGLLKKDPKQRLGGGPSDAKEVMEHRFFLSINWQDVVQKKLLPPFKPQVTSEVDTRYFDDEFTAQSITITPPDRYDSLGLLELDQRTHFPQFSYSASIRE
Chain of His-tagged human recombinant kinase full-length Akt1 (P31749 whole entry): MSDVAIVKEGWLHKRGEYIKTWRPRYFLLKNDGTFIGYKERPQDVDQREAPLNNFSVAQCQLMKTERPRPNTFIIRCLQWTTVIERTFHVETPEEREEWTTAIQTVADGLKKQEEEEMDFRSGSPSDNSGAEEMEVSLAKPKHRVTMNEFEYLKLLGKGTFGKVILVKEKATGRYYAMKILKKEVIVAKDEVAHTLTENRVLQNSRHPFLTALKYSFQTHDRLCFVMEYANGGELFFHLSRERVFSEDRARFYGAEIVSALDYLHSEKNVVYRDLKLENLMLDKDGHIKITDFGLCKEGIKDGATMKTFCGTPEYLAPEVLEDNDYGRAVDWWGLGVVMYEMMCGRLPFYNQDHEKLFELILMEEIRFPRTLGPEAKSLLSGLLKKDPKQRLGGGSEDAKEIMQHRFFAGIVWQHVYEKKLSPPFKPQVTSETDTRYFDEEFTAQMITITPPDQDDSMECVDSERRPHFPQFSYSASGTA

| Structure (SMILES) | IC50 [1] | IC50 [2] | IC50 [3] | IC50 [4] |
| --- | --- | --- | --- | --- |
| C=Cc1c(C)nc2cc(-c3ccccc3)c(-c3ccc(C4(N)CCC4)cc3)nn12 [Example 12-0, 1-[4-(2-Methyl-7-phenyl-3-vinyl-imidazo[1,2-b]pyridazin-6-yl)-phenyl]-cyclobutylamine] | 8940 nM | 16700 nM | 10000 nM | 3200 nM |
| COC(=O)/C=C/c1c(C)nc2cc(-c3ccccc3)c(-c3ccc(C4(N)CCC4)cc3)nn12 [Example 11-0, (E)-3-{6-[4-(1-Amino-cyclobutyl)-phenyl]-2-methyl-7-phenyl-imidazo[1,2-b]pyridazin-3-yl}-acrylic acid methyl ester] | 5970 nM | 10100 nM | 10000 nM | 5280 nM |
| Cc1nc2cc(-c3ccccc3)c(-c3ccc(C4(N)CCC4)cc3)nn2c1-c1ccn[nH]1 [Example 5-5, 1-{4-[2-Methyl-7-phenyl-3-(2H-pyrazol-3-yl)-imidazo[1,2-b]pyridazin-6-yl]-phenyl}-cyclobutylamine] | 2730 nM | 5230 nM | 4110 nM | 3690 nM |
| NC1(c2ccc(-c3nn4c(-c5ccc(F)cc5)c(Br)nc4cc3-c3ccccc3)cc2)CCC1 [Example 6-0, 1-{4-[2-Bromo-3-(4-fluorophenyl)-7-phenyl-imidazo[1,2-b]pyridazin-6-yl]-phenyl}-cyclobutylamine] | 68 nM | 41 nM | 410 nM | 1890 nM |
| Cc1nc2cc(-c3ccccc3)c(-c3ccc(C4(N)CCC4)cc3)nn2c1-c1ccc(C(N)=O)cc1 [Example 5-4, 4-{6-[4-(1-Amino-cyclobutyl)-phenyl]-2-methyl-7-phenyl-imidazol[1,2-b]pyridazin-3-yl}-benzamide] | 12100 nM | 4820 nM | 10000 nM | 2380 nM |
| NC1(c2ccc(-c3nn4c(-c5ccc(F)c(CO)c5)cnc4cc3-c3ccccc3)cc2)CCC1 [Example 4-9, (5-{6-[4-(1-Amino-cyclobutyl)-phenyl]-7-phenyl-imidazo[1,2-b]pyridazin-3-yl}-2-fluorophenyl)-methanol hydrochloride] | 9 nM | 92 nM | 40 nM | 1560 nM |

More lines, in order of falling IC50 [1], values ahead:

| IC50 [1] | IC50 [2] | IC50 [3] | IC50 [4] | Structure (SMILES) |
| --- | --- | --- | --- | --- |
| 47 nM | 151 nM | 160 nM | 1750 nM | NC1(c2ccc(-c3nn4c(-c5ccc(S(N)(=O)=O)cc5)cnc4cc3-c3ccccc3)cc2)CCC1 [Example 4-7, 4-{6-[4-(1-Amino-cyclobutyl)-phenyl]-7-phenyl-imidazo[1,2-b]pyridazin-3-yl}-benzenesulfonamide hydrocloride] |
| 44 nM | 326 nM | 30 nM | 1870 nM | C=Cc1cnc2cc(-c3ccccc3)c(-c3ccc(C4(N)CCC4)cc3)nn12 [Example 9-0, 1-[4-(7-Phenyl-3-vinyl-imidazo[1,2-b]pyridazin-6-yl)-phenyl]-cyclobutylamine] |
| 38 nM | 222 nM | 50 nM | 2420 nM | NC(=O)/C=C/c1cnc2cc(-c3ccccc3)c(-c3ccc(C4(N)CCC4)cc3)nn12 [Example 8-0, (E)-3-{6-[4-(1-Amino-cyclobutyl)-phenyl]-7-phenyl-imidazo[1,2-b]pyridazin-3-yl}-acrylamide] |
| 19 nM | 123 nM | 30 nM | 1590 nM | NC1(c2ccc(-c3nn4c(-c5ccc(CO)cc5)cnc4cc3-c3ccccc3)cc2)CCC1 [Example 4-6, (4-{6-[4-(1-Amino-cyclobutyl)-phenyl]-7-phenyl-imidazo[1,2-b]pyridazin-3-yl}-phenyl)-methanol formiate] |
| 13 nM | 68 nM | 20 nM | 1410 nM | NC(=O)c1cccc(-c2cnc3cc(-c4ccccc4)c(-c4ccc(C5(N)CCC5)cc4)nn23)c1 [Example 4-11, 3-{6-[4-(1-Amino-cyclobutyl)-phenyl]-7-phenyl-imidazo[1,2-b]pyridazin-3-yl}-benzamide hydrochloride] |
